# According to patent US8859580B2 (Boehringer Ingelheim International GmbH, priority 2007, dated 2014):
# Molecular target: T1, 11β-HSD1 (Homo sapiens, UniProt P28845)
# T1 construct: detecting cortisol generated from cortisterone by human liver microsomes; from tissue; host or cells: human liver microsomes
# Test: In vitro inhibition of 11β-HSD1, HTRF detection of cortisol generated from cortisone by human liver microsomes
# Format: biochemical
# Details: 11β-HSD IC50 (nM), 1 hour at 37° C., pH 6.0, NADPH 200 μM, cortisone 80 nM, inhibition relative to carbenoxolone signal
# Method in brief: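 Inhibition expressed against the carbenoxolone signal and fitted to IC50 curves. Readout: HTRF competition between microsomal cortisol and XL665-labelled cortisol for Eu-cryptate anti-cortisol antibody (typically 2 h), with emission ratio 665/615 calibrated to cortisol concentration.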
# T1 sequence (P28845 whole entry): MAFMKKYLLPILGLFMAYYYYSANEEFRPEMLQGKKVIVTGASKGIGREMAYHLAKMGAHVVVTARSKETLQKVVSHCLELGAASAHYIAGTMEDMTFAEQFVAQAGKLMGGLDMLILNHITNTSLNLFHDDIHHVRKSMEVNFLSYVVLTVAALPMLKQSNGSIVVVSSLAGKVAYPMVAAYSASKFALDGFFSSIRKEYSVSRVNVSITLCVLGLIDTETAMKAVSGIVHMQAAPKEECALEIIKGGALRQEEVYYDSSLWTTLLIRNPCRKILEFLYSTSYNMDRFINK
row,Structure (SMILES),IC50
1,"CCC12CCN(C(=O)c3ccc4nc[nH]c4c3)C(Cc3ccc(O)cc31)C2 (centres unmarked) [Example 90, (3H-Benzoimidazol-5-yl)-(6-ethyl-8-hydroxy-1,2,5,6-tetrahydro-4H-2,6-methano-benzo[d]azocin-3-yl)-methanone]",468 nM
2,"CCOC(=O)c1ccc2c(c1)[C@]1(C)CCN(C(=O)c3ccc4nc[nH]c4c3)[C@H](C2)[C@H]1C [Example 91, (2R,6R,11S)-3-(3H-Benzoimidazole-5-carbonyl)-6,11-dimethyl-1,2,3,4,5,6-hexahydro-2,6-methano-benzo[d]azocine-8-carboxylic acid ethyl ester]",711 nM
3,"CC12CCN(C(=O)c3ccc4ncsc4c3)C(Cc3ccc(O)cc31)C2 (centres unmarked) [Example 92, benzothiazol-6-yl-(8-hydroxy-6-methyl-1,2,5,6-tetrahydro-4H-2,6-methano-benzo[d]azocin-3-yl)-methanone]",1110 nM
4,"CC1(C)[C@H]2Cc3c(C#N)cccc3[C@]1(C)CCN2C(=O)c1ccc2nc[nH]c2c1 [Example 93, (2R,6S)-3-(3H-Benzoimidazole-5-carbonyl)-6,11,11-trimethyl-1,2,3,4,5,6-hexahydro-2,6-methano-benzo[d]azocine-10-carbonitrile]",2060 nM
5,"COC(=O)C12CCN(C(=O)c3ccc4ncsc4c3)C(Cc3ccc(O)cc31)C2 (centres unmarked) [Example 94, 3-(Benzothiazole-6-carbonyl)-8-hydroxy-2,3,4,5-tetrahydro-1H-2,6-methano-benzo[d]azocine-6-carboxylic acid methyl ester]",6720 nM
6,"CCOC(=O)c1cccc2c1C[C@H]1N(C(=O)c3ccc4nc[nH]c4c3)CC[C@]2(C)C1(C)C [Example 95, (2R,6S)-3-(1H-Benzoimidazole-5-carbonyl)-6,11,11-trimethyl-1,2,3,4,5,6-hexahydro-2,6-methano-benzo[d]azocine-10-carboxylic acid ethyl ester]",3840 nM
7,"CC12CCN(C(=O)c3ccc4nc[nH]c4c3)C(Cc3cc(C#N)ccc31)C2(C)C (centres unmarked) [Example 96, 3-(1H-Benzoimidazole-5-carbonyl)-6,11,11-trimethyl-1,2,3,4,5,6-hexahydro-2,6-methano-benzo[d]azocine-9-carbonitrile]",95 nM
8,"CCOC(=O)c1ccc2c(c1)CC1N(C(=O)c3ccc4nc[nH]c4c3)CCC2(C)C1(C)C (centres unmarked) [Example 97, 3-(1H-Benzoimidazole-5-carbonyl)-6,11,11-trimethyl-1,2,3,4,5,6-hexahydro-2,6-methano-benzo[d]azocine-9-carboxylic acid ethyl ester]",1130 nM
9,"CC1(C)[C@H]2Cc3cc(-c4ccccc4)ccc3[C@]1(C)CCN2C(=O)c1ccc2nc[nH]c2c1 [Example 102, (3H-Benzoimidazol-5-yl)-[(2R,6S)-6,11,11-trimethyl-9-phenyl-1,2,5,6-tetrahydro-4H-2,6-methano-benzo[d]azocin-3-yl]-methanone]",1460 nM
10,"COC12CCN(C(=O)c3ccc4nc[nH]c4c3)C(Cc3ccccc31)C2(C)C (centres unmarked) [Example 103, (3H-Benzoimidazol-5-yl)-(6-methoxy-11,11-dimethyl-1,2,5,6-tetrahydro-4H-2,6-methano-benzo[d]azocin-3-yl)-methanone]",86 nM
11,"COc1cccc2c1C[C@H]1N(C(=O)c3ccoc3C)CC[C@]2(C)C1(C)C [Example 104, [(2R,6S)-10-Methoxy-6,11,11-trimethyl-l,2,5,6-tetrahydro-4H-2,6-methano-benzo[d]azocin-3-yl]-(2-methyl-furan-3-yl)-methanone]",1390 nM
12,"CC1C2Cc3ccc(O)cc3C1(C)CCN2C(=O)c1ccccc1 (centres unmarked) [Example 105, (8-Hydroxy-6,11-dimethyl-1,2,5,6-tetrahydro-4H-2,6-methano-benzo[d]azocin-3-yl)-phenyl-methanone]",1330 nM
13,"Cc1ccccc1C(=O)N1CCC2(C)c3cc(O)ccc3CC1C2C (centres unmarked) [Example 106, (8-Hydroxy-6,11-dimethyl-1,2,5,6-tetrahydro-4H-2,6-methano-benzo[d]azocin-3-yl)-o-tolyl-methanone]",2960 nM
14,"COc1ccc2c(c1)[C@]1(C)CCN(C(=O)c3cccnc3)[C@H](C2)[C@@H]1C [Example 107, [(2R,6R,11R)-8-Methoxy-6,11-dimethyl-1,2,5,6-tetrahydro-4H-2,6-methano-benzo[d]azocin-3-yl]-pyridin-3-yl-methanone]",2550 nM
15,"COc1ccc2c(c1)[C@]1(C)CCN(C(=O)c3ccccc3[N+](=O)[O-])[C@H](C2)[C@@H]1C [Example 108, [(2R,6R,11R)-8-Methoxy-6,11-dimethyl-1,2,5,6-tetrahydro-4H-2,6-methano-benzo[d]azocin-3-yl]-(2-nitro-phenyl)-methanone]",140 nM
16,"COc1ccc2c(c1)[C@]1(C)CCN(C(=O)c3ccccc3C)[C@H](C2)[C@@H]1C [Example 109, [(2R,6R,11R)-8-Methoxy-6,11-dimethyl-1,2,5,6-tetrahydro-4H-2,6-methano-benzo[d]azocin-3-yl]-o-tolyl-methanone]",1460 nM
17,"COc1ccc2c(c1)[C@]1(C)CCN(C(=O)c3occc3C)[C@H](C2)[C@@H]1C [Example 111, [(2R,6R,11R)-8-Methoxy-6,11-dimethyl-1,2,5,6-tetrahydro-4H-2,6-methano-benzo[d]azocin-3-yl]-(3-methyl-furan-2-yl)-methanone]",1600 nM
18,"Cc1ccoc1C(=O)N1CC[C@@]2(C)c3cc(O)ccc3C[C@@H]1[C@@H]2C [Example 112, [(2R,6R,11R)-8-Hydroxy-6,11-dimethyl-1,2,5,6-tetrahydro-4H-2,6-methano-benzo[d]azocin-3-yl]-(3-methyl-furan-2-yl)-methanone]",1230 nM
19,"C[C@H]1[C@H]2Cc3ccc(O)cc3[C@]1(C)CCN2C(=O)c1ccco1 [Example 113, Furan-2-yl-[(2R,6R,11R)-8-hydroxy-6,11-dimethyl-1,2,5,6-tetrahydro-4H-2,6-methano-benzo[d]azocin-3-yl]-methanone]",3630 nM
20,"C[C@H]1[C@H]2Cc3ccc(O)cc3[C@]1(C)CCN2C(=O)c1ccccc1[N+](=O)[O-] [Example 115, [(2R,6R,11R)-8-Hydroxy-6,11-dimethyl-1,2,5,6-tetrahydro-4H-2,6-methano-benzo[d]azocin-3-yl]-(2-nitro-phenyl)-methanone]",1590 nM
21,"CC1(C)[C@H]2Cc3c(O)cccc3[C@]1(C)CCN2C(=O)c1cc2ccccc2[nH]1 [Example 116, [(2R,6S)-10-Hydroxy-6,11,11-trimethyl-1,2,5,6-tetrahydro-4H-2,6-methano-benzo[d]azocin-3-yl]-(1H-indol-2-yl)-methanone]",3850 nM
22,"CC1(C)[C@H]2Cc3c(O)cccc3[C@]1(C)CCN2C(=O)c1ccc(CN)cc1 [Example 117, (4-Aminomethyl-phenyl)-[(2R,6S)-10-hydroxy-6,11,11-trimethyl-1,2,5,6-tetrahydro-4H-2,6-methano-benzo[d]azocin-3-yl]-methanone]",1420 nM
23,"CC1(C)[C@H]2Cc3c(O)cccc3[C@]1(C)CCN2C(=O)c1c[nH]c2ccccc12 [Example 118, [(2R,6S)-10-Hydroxy-6,11,11-trimethyl-1,2,5,6-tetrahydro-4H-2,6-methano-benzo[d]azocin-3-yl]-(1H-indol-3-yl)-methanone]",72 nM
24,"CCN(CC)Cc1ccc(C(=O)N2CC[C@@]3(C)c4cccc(O)c4C[C@@H]2C3(C)C)cc1 [Example 119, (4-Diethylaminomethyl-phenyl)-[(2R,6S)-10-hydroxy-6,11,11-trimethyl-1,2,5,6-tetrahydro-4H-2,6-methano-benzo[d]azocin-3-yl]-methanone]",1550 nM
25,"CC1(C)[C@H]2Cc3c(O)cccc3[C@]1(C)CCN2C(=O)c1ccc(CN2CCCC2)cc1 [Example 120, [(2R,6S)-10-Hydroxy-6,11,11-trimethyl-1,2,5,6-tetrahydro-4H-2,6-methano-benzo[d]azocin-3-yl]-(4-pyrrolidin-1-ylmethyl-phenyl)-methanone]",3840 nM
26,Cc1noc(C)c1C(=O)N1CC[C@@]2(C)c3cccc(O)c3C[C@@H]1C2(C)C [Example 121],4120 nM
27,"COc1cc(C(=O)N2CC[C@@]3(C)c4cccc(O)c4C[C@@H]2C3(C)C)ccc1CN1CCCC1=O [Example 122, 1-{4-[(2R,6S)-10-Hydroxy-6,11,11-trimethyl-1,2,5,6-tetrahydro-4H-2,6-methano-benzo[d]azocine-3-carbonyl]-2-methoxy-benzyl}-pyrrolidin-2-one]",818 nM
28,"CC1(C)[C@H]2Cc3c(O)cccc3[C@]1(C)CCN2C(=O)c1ccc(Cn2ccnc2)cc1 [Example 123, [(2R,6S)-10-Hydroxy-6,11,11-trimethyl-1,2,5,6-tetrahydro-4H-2,6-methano-benzo[d]azocin-3-yl]-(4-imidazol-1-ylmethyl-phenyl)-methanone]",297 nM
29,"Cc1cc(C(=O)N2CC[C@@]3(C)c4cccc(O)c4C[C@@H]2C3(C)C)nn1C [Example 124, (1,5-Dimethyl-1H-pyrazol-3-yl)-[(2R,6S)-10-hydroxy-6,11,11-trimethyl-1,2,5,6-tetrahydro-4H-2,6-methano-benzo[d]azocin-3-yl]-methanone]",658 nM

# Same assay, conditions: 1 hour at 37° C., pH 6.0, NADPH 200 μM, cortisone 80 nM, inhibition relative to carbenoxolone signal, read-out: 11β-HSD IC50
row,Structure (SMILES),IC50
1,"CC12CCN(C(=O)c3ccc4nc[nH]c4c3)C(CCc3ccccc31)C2 (centres unmarked) [Example 98, (3H-Benzoimidazol-5-yl)-(1-methyl-11-aza-tricyclo[8.3.1.0*2,7*]tetradeca-2,4,6-trien-11-yl)-methanone]",125 nM
2,"COc1ccc2c(c1)C1CCN(C(=O)c3ccc4nc[nH]c4c3)C2C1 (centres unmarked) [Example 99, (3H-Benzoimidazol-5-yl)-(4-methoxy-9-aza-tricyclo[6.3.1.0*2,7*]dodeca-2,4,6-trien-9-yl)-methanone]",285 nM
3,"O=C(c1ccc2nc[nH]c2c1)N1CCC2CC1c1ccc(O)cc12 (centres unmarked) [Example 100, (3H-Benzoimidazol-5-yl)-(4-hydroxy-9-aza-tricyclo[6.3.1.0*2,7*]dodeca-2,4,6-trien-9-yl)-methanone]",564 nM
